We go through three compounds from patent publication US11208412B2 (DAEGU-GYEONGBUK MEDICAL INNOVATION FOUNDATION, priority 2017, dated 2021).

What all share (assay): Kinase selectivity, DiscoverX scanMAX Kinase assay panel (% control)
Holding throughout (format): binding

The target in assay [1] is T1, kinases of the scanMAX Kinase assay panel (Homo sapiens, UniProt Q9NQU5).
T1 construct: purchased DiscoverX Co. (contract measurement) scanMAX Kinase assay panel
The following applies: PAK6; 1 uM. A digest of the protocol: (§1)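 Each enzyme is treated with drug at 1 uM in DMSO, then signal is scaled between a positive control (0%) and DMSO (100%) to give % control. Kinases with % control under 35% are scored as inhibited.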

The target of assay [2] is T2, kinases of the scanMAX Kinase assay panel (Homo sapiens, UniProt P10721).
T2 construct: purchased DiscoverX Co. (contract measurement) scanMAX Kinase assay panel
The following applies: 1 uM. A digest of the protocol:
as §1

Assay [3] concerns the target T3, kinases of the scanMAX Kinase assay panel (Homo sapiens, UniProt O43353).
T3 construct: purchased DiscoverX Co. (contract measurement) scanMAX Kinase assay panel
The following applies: kinase RIPK2; 1 uM in DMSO. A digest of the protocol: as §1

For assay [4], the target named is T4, kinases of the scanMAX Kinase assay panel (Homo sapiens, UniProt Q9BUB5).
T4 construct: purchased DiscoverX Co. (contract measurement) scanMAX Kinase assay panel
Particulars: MKNK1; 1 uM. A digest of the protocol:
as §1

The target of assay [5] is T5, kinases of the scanMAX Kinase assay panel (Homo sapiens, UniProt P07949, V804M).
T5 construct: purchased DiscoverX Co. (contract measurement) scanMAX Kinase assay panel
Particulars: kinase RET(V804M); 1 uM in DMSO. A digest of the protocol: as §1

Assay [6] has as its target T6, kinases of the scanMAX Kinase assay panel (Homo sapiens, UniProt Q07912).
T6 construct: purchased DiscoverX Co. (contract measurement) scanMAX Kinase assay panel
The following applies: kinase TNK2; 1 uM in DMSO. A digest of the protocol:
as §1

The target in assay [7] is T7, kinases of the scanMAX Kinase assay panel (Homo sapiens, UniProt Q96RR4).
T7 construct: purchased DiscoverX Co. (contract measurement) scanMAX Kinase assay panel
The following applies: CAMKK2; 1 uM. A digest of the protocol: as §1

For assay [8], the target named is T8, kinases of the scanMAX Kinase assay panel (Homo sapiens, UniProt P22607, G697C).
T8 construct: purchased DiscoverX Co. (contract measurement) scanMAX Kinase assay panel
Particulars: FGFR3(G697C); 1 uM. A digest of the protocol: as §1

The target of assay [9] is T9, kinases of the scanMAX Kinase assay panel (Homo sapiens, UniProt P08069).
T9 construct: purchased DiscoverX Co. (contract measurement) scanMAX Kinase assay panel
The following applies: IGF1R; 1 uM. A digest of the protocol:
as §1

Assay [10] deals with T10, kinases of the scanMAX Kinase assay panel (Homo sapiens, UniProt P00533, L858R).
T10 construct: purchased DiscoverX Co. (contract measurement) scanMAX Kinase assay panel
Particulars: EGFR(L858R); 1 uM. A digest of the protocol:
as §1

Assay [11] has as its target T11, kinases of the scanMAX Kinase assay panel (Homo sapiens, UniProt O60331).
T11 construct: purchased DiscoverX Co. (contract measurement) scanMAX Kinase assay panel
The following applies: PIP5K1C; 1 uM. A digest of the protocol: as §1

The target in assay [12] is T12, kinases of the scanMAX Kinase assay panel (Homo sapiens, UniProt Q6DT37).
T12 construct: purchased DiscoverX Co. (contract measurement) scanMAX Kinase assay panel
The following applies: DMPK2; 1 uM. A digest of the protocol: as §1

In assay [13] the target is T13, kinases of the scanMAX Kinase assay panel (Homo sapiens, UniProt P37173).
T13 construct: purchased DiscoverX Co. (contract measurement) scanMAX Kinase assay panel
Particulars: kinase TGFBR2; 1 uM in DMSO. A digest of the protocol: as §1

Assay [14] deals with T14, kinases of the scanMAX Kinase assay panel (Homo sapiens, UniProt O14757).
T14 construct: purchased DiscoverX Co. (contract measurement) scanMAX Kinase assay panel
T14 sequence (O14757 1-476): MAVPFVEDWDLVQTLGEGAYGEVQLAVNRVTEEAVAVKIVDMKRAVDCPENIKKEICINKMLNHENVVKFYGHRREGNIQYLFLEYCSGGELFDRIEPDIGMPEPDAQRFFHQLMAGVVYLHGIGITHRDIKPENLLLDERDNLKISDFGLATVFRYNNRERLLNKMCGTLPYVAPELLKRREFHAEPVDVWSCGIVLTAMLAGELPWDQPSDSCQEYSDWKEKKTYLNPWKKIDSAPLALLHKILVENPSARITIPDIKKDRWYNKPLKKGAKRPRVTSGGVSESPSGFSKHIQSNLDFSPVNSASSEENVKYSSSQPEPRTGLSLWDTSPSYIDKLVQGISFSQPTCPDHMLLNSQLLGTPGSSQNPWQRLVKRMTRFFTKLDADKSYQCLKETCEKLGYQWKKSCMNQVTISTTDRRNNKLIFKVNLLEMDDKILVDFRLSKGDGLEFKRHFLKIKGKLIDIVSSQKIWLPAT
The following applies: CHEK1; 1 uM. A digest of the protocol:
as §1

For assay [15], the target named is T15, kinases of the scanMAX Kinase assay panel (Homo sapiens, UniProt P53779).
T15 construct: purchased DiscoverX Co. (contract measurement) scanMAX Kinase assay panel
The following applies: JNK3; 1 uM. A digest of the protocol: as §1

The target of assay [16] is T16, kinases of the scanMAX Kinase assay panel (Homo sapiens, UniProt P53671).
T16 construct: purchased DiscoverX Co. (contract measurement) scanMAX Kinase assay panel
The following applies: LIMK2; 1 uM. A digest of the protocol:
as §1

Molecules are shown by their SMILES.

T6 sequence (Q07912 whole entry): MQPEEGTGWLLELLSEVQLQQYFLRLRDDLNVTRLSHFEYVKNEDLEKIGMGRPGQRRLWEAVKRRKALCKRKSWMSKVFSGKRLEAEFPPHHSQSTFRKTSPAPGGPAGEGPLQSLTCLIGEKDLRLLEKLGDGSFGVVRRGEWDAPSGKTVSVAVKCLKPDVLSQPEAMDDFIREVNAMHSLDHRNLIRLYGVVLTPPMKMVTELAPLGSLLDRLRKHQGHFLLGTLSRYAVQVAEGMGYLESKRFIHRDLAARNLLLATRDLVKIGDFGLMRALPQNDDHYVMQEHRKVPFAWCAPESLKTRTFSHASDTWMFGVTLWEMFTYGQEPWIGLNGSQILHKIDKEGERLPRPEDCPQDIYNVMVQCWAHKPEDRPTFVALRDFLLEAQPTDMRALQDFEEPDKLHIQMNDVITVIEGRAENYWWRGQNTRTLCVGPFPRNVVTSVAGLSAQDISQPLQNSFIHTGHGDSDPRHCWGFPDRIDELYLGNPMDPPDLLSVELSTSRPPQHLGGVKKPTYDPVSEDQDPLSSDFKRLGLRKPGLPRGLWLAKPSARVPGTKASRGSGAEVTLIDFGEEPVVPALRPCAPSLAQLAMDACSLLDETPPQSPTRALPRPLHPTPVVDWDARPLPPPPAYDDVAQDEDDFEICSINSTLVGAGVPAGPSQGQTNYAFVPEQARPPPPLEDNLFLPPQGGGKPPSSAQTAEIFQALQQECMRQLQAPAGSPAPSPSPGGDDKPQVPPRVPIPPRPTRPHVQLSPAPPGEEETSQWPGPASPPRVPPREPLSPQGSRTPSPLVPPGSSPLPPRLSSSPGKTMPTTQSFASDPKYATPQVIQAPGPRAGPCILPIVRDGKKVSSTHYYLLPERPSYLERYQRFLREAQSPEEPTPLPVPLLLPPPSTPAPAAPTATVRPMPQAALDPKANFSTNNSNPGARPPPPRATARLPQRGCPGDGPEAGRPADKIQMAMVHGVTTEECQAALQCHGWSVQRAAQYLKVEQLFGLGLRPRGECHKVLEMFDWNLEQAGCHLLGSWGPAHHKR
T11 sequence (O60331 whole entry): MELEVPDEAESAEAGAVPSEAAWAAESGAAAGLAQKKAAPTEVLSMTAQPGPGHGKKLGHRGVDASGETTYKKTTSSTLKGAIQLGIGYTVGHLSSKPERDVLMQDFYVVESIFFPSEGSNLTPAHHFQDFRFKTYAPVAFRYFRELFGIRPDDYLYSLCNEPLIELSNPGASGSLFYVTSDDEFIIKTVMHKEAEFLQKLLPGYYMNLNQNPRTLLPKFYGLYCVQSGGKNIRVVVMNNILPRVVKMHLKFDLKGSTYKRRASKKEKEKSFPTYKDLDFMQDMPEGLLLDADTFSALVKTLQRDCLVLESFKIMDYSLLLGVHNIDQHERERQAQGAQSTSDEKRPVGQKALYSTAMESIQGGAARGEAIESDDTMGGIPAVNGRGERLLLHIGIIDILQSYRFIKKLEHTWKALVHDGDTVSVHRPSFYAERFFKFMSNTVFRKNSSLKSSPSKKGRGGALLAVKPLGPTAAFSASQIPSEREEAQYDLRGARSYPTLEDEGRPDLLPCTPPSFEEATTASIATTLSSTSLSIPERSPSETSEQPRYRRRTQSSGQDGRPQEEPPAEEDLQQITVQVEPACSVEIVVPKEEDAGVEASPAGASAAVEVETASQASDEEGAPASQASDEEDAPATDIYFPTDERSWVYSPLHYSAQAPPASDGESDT
T15 sequence (P53779 whole entry): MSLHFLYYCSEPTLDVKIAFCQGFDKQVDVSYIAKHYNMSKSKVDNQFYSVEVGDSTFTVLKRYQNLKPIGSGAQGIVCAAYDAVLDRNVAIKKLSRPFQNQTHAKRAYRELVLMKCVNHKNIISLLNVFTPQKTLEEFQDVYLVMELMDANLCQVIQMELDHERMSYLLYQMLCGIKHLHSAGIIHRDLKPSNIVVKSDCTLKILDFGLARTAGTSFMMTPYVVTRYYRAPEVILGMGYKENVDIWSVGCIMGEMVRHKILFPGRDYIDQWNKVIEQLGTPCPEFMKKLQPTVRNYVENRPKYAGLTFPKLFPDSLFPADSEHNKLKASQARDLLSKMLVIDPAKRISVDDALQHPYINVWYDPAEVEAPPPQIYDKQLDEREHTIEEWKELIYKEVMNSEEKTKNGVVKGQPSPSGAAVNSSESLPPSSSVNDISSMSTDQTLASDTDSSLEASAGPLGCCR
T13 sequence (P37173 23-567): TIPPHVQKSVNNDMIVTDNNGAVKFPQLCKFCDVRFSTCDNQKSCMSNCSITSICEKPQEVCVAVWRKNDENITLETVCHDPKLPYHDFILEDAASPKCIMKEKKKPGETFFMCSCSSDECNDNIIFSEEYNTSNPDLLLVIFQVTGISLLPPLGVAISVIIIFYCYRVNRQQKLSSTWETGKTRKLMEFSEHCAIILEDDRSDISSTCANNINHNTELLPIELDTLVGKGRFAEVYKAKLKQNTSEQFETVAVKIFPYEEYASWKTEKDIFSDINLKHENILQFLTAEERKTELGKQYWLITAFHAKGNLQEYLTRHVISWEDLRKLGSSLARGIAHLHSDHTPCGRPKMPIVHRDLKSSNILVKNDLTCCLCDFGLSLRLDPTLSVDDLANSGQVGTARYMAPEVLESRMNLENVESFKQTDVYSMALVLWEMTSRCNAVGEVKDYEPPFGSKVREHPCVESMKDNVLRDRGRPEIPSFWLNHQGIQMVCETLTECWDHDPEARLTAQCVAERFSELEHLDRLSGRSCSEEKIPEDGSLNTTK
T10 sequence (P00533 25-1210 L858R): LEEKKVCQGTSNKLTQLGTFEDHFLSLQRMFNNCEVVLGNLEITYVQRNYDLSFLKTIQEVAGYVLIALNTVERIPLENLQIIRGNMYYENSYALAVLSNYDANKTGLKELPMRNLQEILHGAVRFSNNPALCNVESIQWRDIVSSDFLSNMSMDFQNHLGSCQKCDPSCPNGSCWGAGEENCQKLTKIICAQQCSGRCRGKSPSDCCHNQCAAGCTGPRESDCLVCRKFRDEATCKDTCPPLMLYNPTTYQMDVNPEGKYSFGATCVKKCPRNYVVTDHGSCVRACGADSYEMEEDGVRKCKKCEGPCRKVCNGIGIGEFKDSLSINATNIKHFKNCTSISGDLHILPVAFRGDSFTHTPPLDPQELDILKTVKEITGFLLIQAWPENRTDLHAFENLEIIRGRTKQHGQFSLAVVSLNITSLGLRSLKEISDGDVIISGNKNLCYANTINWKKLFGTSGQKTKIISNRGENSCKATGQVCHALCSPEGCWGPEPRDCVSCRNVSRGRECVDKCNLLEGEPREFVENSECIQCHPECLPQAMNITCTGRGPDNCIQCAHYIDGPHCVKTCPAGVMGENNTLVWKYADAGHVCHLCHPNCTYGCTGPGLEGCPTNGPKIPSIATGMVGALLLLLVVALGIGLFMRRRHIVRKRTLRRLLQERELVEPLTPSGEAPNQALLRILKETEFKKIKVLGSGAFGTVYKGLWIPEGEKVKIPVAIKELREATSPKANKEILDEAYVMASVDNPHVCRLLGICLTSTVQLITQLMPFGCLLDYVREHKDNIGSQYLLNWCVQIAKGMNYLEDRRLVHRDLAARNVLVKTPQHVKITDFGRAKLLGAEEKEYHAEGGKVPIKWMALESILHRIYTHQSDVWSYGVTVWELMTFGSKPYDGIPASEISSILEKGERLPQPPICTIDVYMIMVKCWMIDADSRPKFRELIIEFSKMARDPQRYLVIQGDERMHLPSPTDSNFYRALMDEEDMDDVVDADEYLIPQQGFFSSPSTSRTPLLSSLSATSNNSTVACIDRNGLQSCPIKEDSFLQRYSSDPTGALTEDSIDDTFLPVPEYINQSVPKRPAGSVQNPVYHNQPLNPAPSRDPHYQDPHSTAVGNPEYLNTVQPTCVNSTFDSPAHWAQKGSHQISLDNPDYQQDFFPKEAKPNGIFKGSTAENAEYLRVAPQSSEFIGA
T16 sequence (P53671 whole entry): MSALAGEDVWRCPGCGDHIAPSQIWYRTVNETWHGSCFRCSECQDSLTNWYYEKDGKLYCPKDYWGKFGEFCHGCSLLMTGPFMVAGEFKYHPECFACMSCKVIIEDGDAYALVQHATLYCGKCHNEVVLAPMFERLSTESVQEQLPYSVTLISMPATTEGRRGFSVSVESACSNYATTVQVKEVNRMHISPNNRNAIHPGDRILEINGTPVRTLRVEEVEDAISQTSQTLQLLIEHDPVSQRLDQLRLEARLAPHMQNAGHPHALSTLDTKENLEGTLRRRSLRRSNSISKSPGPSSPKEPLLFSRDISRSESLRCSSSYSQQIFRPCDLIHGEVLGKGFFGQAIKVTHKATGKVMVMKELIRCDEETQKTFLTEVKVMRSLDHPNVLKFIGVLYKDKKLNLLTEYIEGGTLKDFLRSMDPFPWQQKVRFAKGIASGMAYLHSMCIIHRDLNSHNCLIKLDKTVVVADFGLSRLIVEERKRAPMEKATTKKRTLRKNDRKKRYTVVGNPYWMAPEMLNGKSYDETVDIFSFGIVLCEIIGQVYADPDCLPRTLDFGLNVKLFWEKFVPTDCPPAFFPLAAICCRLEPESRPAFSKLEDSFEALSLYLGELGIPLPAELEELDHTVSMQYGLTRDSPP
T4 sequence (Q9BUB5 whole entry): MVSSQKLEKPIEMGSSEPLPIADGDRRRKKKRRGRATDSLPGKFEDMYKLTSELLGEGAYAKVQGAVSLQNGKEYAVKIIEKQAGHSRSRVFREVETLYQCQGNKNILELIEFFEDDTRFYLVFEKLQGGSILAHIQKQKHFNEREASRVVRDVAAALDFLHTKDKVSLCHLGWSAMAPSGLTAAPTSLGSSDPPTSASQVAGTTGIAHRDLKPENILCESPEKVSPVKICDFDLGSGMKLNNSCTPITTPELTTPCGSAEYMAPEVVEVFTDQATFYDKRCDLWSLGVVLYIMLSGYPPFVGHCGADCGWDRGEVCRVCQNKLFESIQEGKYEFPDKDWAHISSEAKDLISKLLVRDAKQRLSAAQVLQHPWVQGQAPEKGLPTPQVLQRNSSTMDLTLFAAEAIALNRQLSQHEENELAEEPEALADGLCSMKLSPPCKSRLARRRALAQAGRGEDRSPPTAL

For the compound `CNc1nc(Nc2ccc(C(=O)N3CCOCC3)cc2OC)nc2[nH]cc(C#N)c12` [Example 1, 2-((2-methoxy-4-(morpholine-4-carbonyl)phenyl)amino)-4-(methylamino)-7H-pyrrolo[2,3-d]pyrimidine-5-carbonitrile], the remaining binding at 1 µM in assay [1] was determined as 76%; in assay [2] (KIT-autoinhibited), 59%; in [2] (KIT) it was 48%; in [3], 100%; in [4] it was 62%; in assay [5], 89%. The remaining binding at 1 µM in [6] is 82%; in assay [7], 65%; in assay [8] it was 97%; in assay [9] it was 82%; in assay [10], 96%; in assay [11] it was 1%. The remaining binding at 1 µM in [12] was found to be 90%; in assay [13], 82%; in assay [14], 85%; in assay [15], 0%; in assay [16], 94%.

In the case of `CC1(Nc2nc(Nc3cnn([C@H]4CCN(C5COC5)C[C@@H]4F)c3Cl)nc3[nH]cc(C#N)c23)CC1` [Example 52, 2-((5-chloro-1-((3S,4S)-3-fluoro-1-(oxetane-3-yl)piperidine-4-yl)-1H-pyrazole-4-yl)amino)((1-methylcyclopropyl)amino)-7H-pyrrolo[2,3-d]pyrimidine-5-carbonitrile], the remaining binding at 1 µM in assay [1] is 8.3%; in [2] (KIT-autoinhibited) it was 0.1%; in [2] (KIT) it was 0.15%; in assay [3], 61%; in [4], 100%; in assay [5], 0%. Besides, the remaining binding at 1 µM in assay [6] was 0.9%; in assay [7], 5.7%; in assay [8], 11%; in [9], 19%; in [10], 41%; in assay [11] it was 0%. The remaining binding at 1 µM in [12] worked out at 81%; in assay [13], 100%; in [14], 26%; in [15], 0%; in [16] it was 65%.

For `CCNc1nc(Nc2ccc(C(=O)N3CCC(N4CCOCC4)CC3)cc2OC)nc2[nH]cc(C(F)(F)F)c12` [Example 104, (4-((4-(ethylamino)-5-(trifluoromethyl)-7H-pyrrolo[2,3-d]pyrimidine-2-yl)amino)-3-methoxyphenyl)(4-morpholinopiperidine-1-yl)methanone], the remaining binding at 1 µM in [1] worked out at 91%; in assay [2] (KIT-autoinhibited), 74%; in assay [2] (KIT), 56%; in assay [3], 100%; in assay [4] it was 100%; in [5] it was 87%. For the same compound, the remaining binding at 1 µM is 31% in assay [6]; 20% in assay [7]; 100% in [8]; 12% in assay [9]; 89% in assay [10]; 100% in assay [11]. Also, the remaining binding at 1 µM amounted to 100% in [12]; 96% in [13]; 100% in assay [14]; 18% in assay [15]; 99% in assay [16].
